# Biological target: fly head P2 membranes
# Experiment: radiometric assay: displacement of 3H-dihydro-CJ-12662 from fly head P2 membranes (Ki; also single-concentration high throughput screen, % inhibition)
# Set-up: species or system Lucilia sericata
# Details: radioligand binding to fly head P2 membranes; value used to calculate Ki values
# Procedure: A further aspect of the invention is a novel binding assay which is used to assess the potential antiparasitic activity of these compounds by measuring how tightly they bind to membranes purified from parasite homogenates. The affinity is calculated according to how readily the compounds of the present invention displace a radiolabeled, reduced analogue of (1S,2R,4aS,5R,8R,8aR)-2-(acetyloxy)-8a-hydroxy-3,8-dimethyl-5-(1-methylethenyl)-1,2,4a,5,6,7,8,8a-octahydronaphthalen-1-yl(2S,3aR,9bR)-6-chloro-9b-hydroxy-5-methyl-1,2,3,3a,5,9b-hexahydropyrrolo[2,3-c][2,1]benzoxazine-2-carboxylate from these membranes.
# The in vitro assay for measurement of compounds which displace ^3H-dihydro-(1S,2R,4aS,5R,8R,8aR)-2-(acetyloxy)-8a-hydroxy-3,8-dimethyl-5-(1-methylethenyl)-1,2,4a,5,6,7,8,8a-octahydronaphthalen-1-yl(2S,3aR,9bR)-6-chloro-9b-hydroxy-5-methyl-1,2,3,3a,5,9b-hexahydropyrrolo[2,3-c][2,1]benzoxazine-2-carboxylate from fly head P2 membranes represents another aspect of the invention and was performed as follows. […]
substance,measurement,value
"^3H-dihydro-(1S,2R,4aS,5R,8R,8aR)-2-(acetyloxy)-8a-hydroxy-3,8-dimethyl-5-(1-methylethenyl)-1,2,4a,5,6,7,8,8a-octahydronaphthalen-1-yl(2S,3aR,9bR)-6-chloro-9b-hydroxy-5-methyl-1,2,3,3a,5,9b-hexahydropyrrolo[2,3-c][2,1]benzoxazine-2-carboxylate [^3H-dihydro-CJ-12662]",Kd,7 nM
